Test results reported in patent US20110045101A1, “FUNGICIDAL SUBSTITUTED AZOLES” (E.I. Du Pont De Nemours and Company, priority 2009, published 2011).

Tests used:
Type in all cases: in vivo
Conditions in all cases: 200 ppm, 100 = 100% disease control
[1] = system: Erysiphe graminis f. sp. tritici; assay: Test J: wheat powdery mildew on wheat seedlings, sprayed the day before inoculation, visual disease rating
Source text: (§1) General protocol for preparing test suspensions for Tests A-J: The test compounds were first dissolved in acetone in an amount equal to 3% of the final volume and then suspended at the desired concentration (in ppm) in acetone and purified water (50/50 mix) containing 250 ppm of the surfactant Trem® 014 (polyhydric alcohol esters). The resulting test suspensions were then used in tests A-J. Spraying a 200 ppm test suspension to the point of run-off on the test plants was the equivalent of a rate of 500 g/ha. […] The test suspension was sprayed to the point of run-off on wheat seedlings. […] A dash (-) indicates no test results. All results are for 200 ppm except where followed by “*”, which indicates 40 ppm.

Septoria nodorum = assay: Test F: wheat glume blotch on wheat seedlings, sprayed the day before inoculation, visual disease rating
Source text: as §1

Alternaria solani = assay: Test D: tomato early blight, sprayed the day before inoculation, visual disease rating
Source text: as §1

Septoria tritici = assay: Test G: wheat leaf blotch on wheat seedlings, sprayed the day before inoculation, visual disease rating
Source text: General protocol for preparing test suspensions for Tests A-J: The test compounds were first dissolved in acetone in an amount equal to 3% of the final volume and then suspended at the desired concentration (in ppm) in acetone and purified water (50/50 mix) containing 250 ppm of the surfactant Trem® 014 (polyhydric alcohol esters). The resulting test suspensions were then used in tests A-J. Spraying a 200 ppm test suspension to the point of run-off on the test plants was the equivalent of a rate of 500 g/ha. […] The test suspension was sprayed to the point of run-off on wheat seedlings. The following day the seedlings were inoculated with a spore suspension of Septoria tritici (the causal agent of wheat leaf blotch) and incubated in saturated atmosphere at 24° C. for 48 h, and then moved to a growth chamber at 20° C. for 19 days, after which time visual disease ratings were made. […] A dash (-) indicates no test results. All results are for 200 ppm except where followed by “*”, which indicates 40 ppm.

Botrytis cinerea = assay: Test C: tomato Botrytis on tomato seedlings, sprayed the day before inoculation, visual disease rating
Source text: General protocol for preparing test suspensions for Tests A-J: The test compounds were first dissolved in acetone in an amount equal to 3% of the final volume and then suspended at the desired concentration (in ppm) in acetone and purified water (50/50 mix) containing 250 ppm of the surfactant Trem® 014 (polyhydric alcohol esters). The resulting test suspensions were then used in tests A-J. Spraying a 200 ppm test suspension to the point of run-off on the test plants was the equivalent of a rate of 500 g/ha. […] The test suspension was sprayed to the point of run-off on tomato seedlings. […] A dash (-) indicates no test results. All results are for 200 ppm except where followed by “*”, which indicates 40 ppm.

[2] = system: Puccinia recondita f. sp. tritici; assay: Test I: wheat leaf rust on wheat seedlings, sprayed the day before inoculation, visual disease rating
Source text: as §1

[3] = 0 = no control relative to controls

SMILES | Test J disease control rating [1, 3] [%] | Test F disease control rating (Septoria nodorum; [3]) [%] | Test D disease control rating (Alternaria solani; [3]) [%] | Test G disease control rating (Septoria tritici; [3]) [%] | Test C disease control rating (Botrytis cinerea; [3]) [%] | Test I disease control rating [2, 3] [%] | Test J disease control rating ([1]; 0 = no control) [%] | Test F disease control rating (Septoria nodorum; 0 = no control) [%] | Test D disease control rating (Alternaria solani; 0 = no control) [%] | Test G disease control rating (Septoria tritici; 0 = no control) [%] | Test C disease control rating (Botrytis cinerea; 0 = no control) [%] | Test I disease control rating ([2]; 0 = no control) [%] | also measured
COc1ccc(F)c(-c2c(Cl)nc(Br)n2-c2ccc(Cl)cc2)c1F [compound 117] | 100 | 99 | 100 | 97 | 96 | 99 | – | – | – | – | – | – | –
COc1cc(F)c(-c2c(Cl)nc(Br)n2-c2ccc(F)cc2)c(F)c1 [compound 144] | 100 | 100 | 100 | 100 | 100 | 100 | – | – | – | – | – | – | –
CCn1nc(Br)c(-c2c(F)cccc2F)c1-c1ccc(Cl)cc1 [compound 165] | – | – | – | – | – | – | 93 | 0 | 0 | 93 | 0 | 27 | –
Cc1nn(C)c(-c2c(Cl)cccc2Cl)c1-c1ccc(Cl)c(F)c1 [compound 89] | 98 | 0 | 0 | 3 | 0 | 85 | – | – | – | – | – | – | –
Cc1ccc(-n2c(Br)nc(Cl)c2-c2c(F)ccc(F)c2F)cc1C [compound 224] | – | – | – | – | – | – | 98 | 0 | 51 | 90 | 93 | 80 | –
COc1cc(F)c(-c2c(Cl)nc(Br)n2-c2cccc(F)c2)c(F)c1 [Compound 256, 2-bromo-4-chloro-5-(2,6-difluoro-4-methoxyphenyl)-1-(3-fluorophenyl)-1H-imidazole] | – | – | – | – | – | – | – | – | – | – | – | – | pest or weed control at 200 ppm ([1]; Blumeria graminis, 168 h, 0 = no control): 99%; pest or weed control at 200 ppm (Septoria nodorum; Parastagonospora nodorum, 264 h, 0 = no control): 100%; pest or weed control at 200 ppm (Alternaria solani; Alternaria solani, 168 h, 0 = no control): 100%; pest or weed control at 200 ppm (Septoria tritici; Zymoseptoria tritici, 504 h, 0 = no control): 97%; pest or weed control at 200 ppm (Botrytis cinerea; Botrytis cinerea, 120 h, 0 = no control): 100%; pest or weed control at 200 ppm ([2]; Puccinia recondita, 168 h, 0 = no control): 100%
Fc1ccc(Br)c(F)c1-c1c(Cl)ncn1-c1ccc(Cl)cc1 [compound 75] | 98 | 0 | 93 | 95 | 98 | 77 | – | – | – | – | – | – | –
Cc1nn(C)c(-c2c(F)cccc2Cl)c1-c1ccc(Cl)c(F)c1 [compound 63] | 100 | 0 | 0 | 33 | 0 | 41 | – | – | – | – | – | – | –
COc1cc(F)c(-c2c(Cl)nc(Br)n2-c2ccc(C)cc2)c(F)c1 [compound 148] | – | – | – | – | – | – | 100 | 99 | 100 | 100 | 99 | 100 | –
Cc1nc(Cl)c(-c2c(F)ccc(Br)c2F)n1-c1ccc(Cl)cc1 [compound 91] | 100 | 100 | 100 | 99 | 98 | 96 | – | – | – | – | – | – | –
Cc1nc(Cl)c(-c2c(F)cccc2F)n1-c1ccc(OC(F)(F)F)cc1 [compound 81] | 100 | 69 | 100 | 93 | 81 | 98 | – | – | – | – | – | – | –
Cc1nc(Cl)c(-c2c(F)cccc2F)n1-c1ccc(F)c(F)c1 [compound 174] | – | – | – | – | – | – | 100 | 82 | 99 | 98 | 98 | 100 | –
